Experimental data as given in patent US20110257144A1 (APEX LABORATORIES PRIVATE LIMITED, priority 2008, published 2011).

Assays:
[1] = system: Staphylococcus aureus; assay: In vitro antimicrobial zone of inhibition study; format: cell-based
Protocol: API-stability experiments were carried out (see tables 4-14) using the product of the present invention and products currently commercially available. Tests were carried out to observe (or measure as appropriate) the physical appearance of the product, the pH value and assay of the API over a period of time. Tests were also carried out to assess the stability by subjecting the product to stress studies such as autoclave test and oxydative degradation test. Further, in vitro antimicrobial zone of inhibition studies were also carried out over a period of time. […] The antimicrobial/antibacterial activity of the product is confirmed by the in vitro Antimicrobial Zone of Inhibition studies for the product against Staphylococcus aureus. The details of the studies are detailed below in Table 15.

[2] = Stability of raw API after 3 months in open and closed Petri dish, stability-indicating HPLC method and titration method; format: physicochemical; details: for Percentage Drop (%) HPLC: after 3 months; for *Initial (%): assay at the time of receipt of the API from the supplier
Protocol: Degradation due to oxidation is a major cause of instability of currently available Fusidic acid creams. […] It can be observed from Tables 1 and 2 that: • In the case of Fusidic Acid, there is about 7.7% loss in 3 Months at room temperature (open condition) and about 11% loss in 3 Months at 45° C. […] (open condition).

| SMILES | Inference ([1]; dose 10 Units) | Zone Diameter Range (mm) ([1]; dose 10 Units) | Percentage Drop (%) HPLC ([2]; 45° C. (Open) Petri dish) | Percentage Drop (%) HPLC ([2]; RT (Open) Petri dish) | stability as an API (comparison) ([2]; Sodium Fusidate versus Fusidic acid, Tables 1 and 2) | *Initial (%) ([2]; listed as Sodium Fusidate BP) | *Initial (%) ([2]; listed as FUSIDIC ACID BP) | Inference ([1]; dose 10 mcg) | Zone Diameter Range (mm) ([1]; dose 10 mcg) | Inference ([1]; dose 20 mcg) | Zone Diameter Range (mm) ([1]; dose 20 mcg) | Inference ([1]; dose 50 mcg) | Zone Diameter Range (mm) ([1]; dose 50 mcg) |
| --- | --- | --- | --- | --- | --- | --- | --- | --- | --- | --- | --- | --- | --- |
| CC1(C)S[C@@H]2[C@H](NC(=O)Cc3ccccc3)C(=O)N2[C@H]1C(=O)O [Penicillin G] | Resistant | 21-27 mm | – | – | – | – | – | – | – | – | – | – | – |
| CC(=O)O[C@H]1C[C@@]2(C)[C@@H](C[C@@H](O)[C@H]3[C@@]4(C)CC[C@@H](O)[C@@H](C)[C@@H]4CC[C@@]32C)/C1=C(\CCC=C(C)C)C(=O)O [Sodium Fusidate] | – | – | about 6% | about 2.5% | more stable than Fusidic acid | 98.7% | – | – | – | – | – | – | – |
| CC(=O)O[C@H]1C[C@@]2(C)[C@@H](C[C@@H](O)[C@H]3[C@@]4(C)CC[C@@H](O)[C@@H](C)[C@@H]4CC[C@@]32C)/C1=C(\CCC=C(C)C)C(=O)O [Fusidic acid] | – | – | about 11% | about 7.7% | – | – | 100.6% | Sensitive | 21-33 mm | Sensitive | 20-30 mm | Sensitive | 25-32 mm |
